According to article PMC9533837 (Antiviral Research, 2003):
In brackets after ≈: the same amount, converted by molar mass. Where two headings read alike, the source gives them in different places.

Assays:
[1] = system: VAR-BSH (1975 Bangladesh isolate of VAR major); assay: organism not typed; type: cell-based, variola major; conditions: for IC50: Vero
[2] = system: VAR-BSH (1975 Bangladesh isolate of VAR major); assay: organism not typed; type: cell-based, variola major
[3] = system: VAR-YAM (1946 Japan Yamada isolate of VAR major); assay: organism not typed; type: cell-based, variola major; conditions: for IC50: Vero
[4] = system: VAR-YAM (1946 Japan Yamada isolate of VAR major); assay: organism not typed; type: cell-based, variola major
[5] = system: VAR-GAR (1966 Brazil Garcia isolate of VAR minor); assay: organism not typed; type: cell-based, variola minor; conditions: for IC50: Vero
[6] = system: VAR-GAR (1966 Brazil Garcia isolate of VAR minor); assay: organism not typed; type: cell-based, variola minor
[7] = system: MPX Zaire (V79-1-005-Scab); assay: organism not typed; type: cell-based, monkeypox; conditions: for IC50: Vero
[8] = system: MPX Zaire (V79-1-005-Scab); assay: organism not typed; type: cell-based, monkeypox
CPX Brighton [9] = assay: organism not typed; type: cell-based, cowpox; conditions: for IC50: Vero
CPX Brighton [10] = assay: organism not typed; type: cell-based, cowpox
VAC Copenhagen [11] = assay: microbe, parasite or virus in culture; type: cell-based, vaccinia virus
VAC Copenhagen [12] = assay: microbe, parasite or virus in culture; type: cell-based, vaccinia virus; remark: listed apart in the source
CPX = system: CPX; set-up: species or system mice; conditions: mouse, in vivo
VAC = system: VAC; set-up: species or system mice; conditions: mouse, in vivo
VAR isolate Butler = assay: organism not typed; type: cell-based, variola minor; conditions: Vero, read-out: IC50, VAR isolate Butler
VAR isolate Minn124 = assay: organism not typed; type: cell-based, variola minor; conditions: Vero, read-out: IC50, VAR isolate Minn124
VAR isolate V68-59 = assay: organism not typed; type: cell-based, variola minor; conditions: Vero, read-out: IC50, VAR isolate V68-59
VAR isolate 102 = assay: organism not typed; type: cell-based, variola; conditions: Vero, read-out: IC50, VAR isolate 102
VAR isolate 7124 = assay: organism not typed; type: cell-based, variola; conditions: Vero, read-out: IC50, VAR isolate 7124
VAR isolate 7125 = assay: organism not typed; type: cell-based, variola; conditions: Vero, read-out: IC50, VAR isolate 7125
VAR isolate Eth17 = assay: organism not typed; type: cell-based, variola; conditions: Vero, read-out: IC50, VAR isolate Eth17
VAR isolate Heidelberg = assay: organism not typed; type: cell-based, variola; conditions: Vero, read-out: IC50, VAR isolate Heidelberg
VAR isolate Higgins = assay: organism not typed; type: cell-based, variola; conditions: Vero, read-out: IC50, VAR isolate Higgins
VAR isolate Hinden = assay: organism not typed; type: cell-based, variola; conditions: Vero, read-out: IC50, VAR isolate Hinden
VAR isolate Horn = assay: organism not typed; type: cell-based, variola; conditions: Vero, read-out: IC50, VAR isolate Horn
VAR isolate Iran 2602 = assay: organism not typed; type: cell-based, variola; conditions: Vero, read-out: IC50, VAR isolate Iran 2602
VAR isolate K1629 = assay: organism not typed; type: cell-based, variola; conditions: Vero, read-out: IC50, VAR isolate K1629
VAR isolate Jee = assay: organism not typed; type: cell-based, variola; conditions: Vero, read-out: IC50, VAR isolate Jee
VAR isolate Rafig Lahore = assay: organism not typed; type: cell-based, variola; conditions: Vero, read-out: IC50, VAR isolate Rafig Lahore
VAR isolate Rumbec = assay: organism not typed; type: cell-based, variola; conditions: Vero, read-out: IC50, VAR isolate Rumbec
VAR isolate Shahzaman = assay: organism not typed; type: cell-based, variola; conditions: Vero, read-out: IC50, VAR isolate Shahzaman
VAR isolate Somalia = assay: organism not typed; type: cell-based, variola; conditions: Vero, read-out: IC50, VAR isolate Somalia
VAR isolate V70-46 = assay: organism not typed; type: cell-based, variola; conditions: Vero, read-out: IC50, VAR isolate V70-46
VAR isolate V70-222 = assay: organism not typed; type: cell-based, variola; conditions: Vero, read-out: IC50, VAR isolate V70-222
VAR isolate V72-119 = assay: organism not typed; type: cell-based, variola; conditions: Vero, read-out: IC50, VAR isolate V72-119
VAR isolate V73-175 = assay: organism not typed; type: cell-based, variola; conditions: Vero, read-out: IC50, VAR isolate V73-175
VAR isolate V73-225 = assay: organism not typed; type: cell-based, variola; conditions: Vero, read-out: IC50, VAR isolate V73-225
VAR isolate V74-227 = assay: organism not typed; type: cell-based, variola; conditions: Vero, read-out: IC50, VAR isolate V74-227
VAR isolate V77-1605 = assay: organism not typed; type: cell-based, variola; conditions: Vero, read-out: IC50, VAR isolate V77-1605
all VAR isolates tested = assay: organism not typed; type: cell-based, variola; conditions: Vero, read-out: IC50, VAR mean
[13] = system: orthopoxviruses (VAR-BSH, VAR-YAM, VAR-GAR, MPX, CPX, VAC); assay: organism not typed; type: cell-based; conditions: read-out: mean IC50 against the panel of viruses

Nc1nccc2c1ncn2[C@@H]1C[C@@H](CO)[C@H](O)[C@@H]1O [C-ca3-Ado, Carbocyclic 3-deazaadenosine]
IC50 VAR-BSH Vero [1]: 1.2 µg/mL (≈ 4.54 µM) | Therapeutic index (TI) VAR-BSH Vero [1]: 83.3 | IC50 VAR-BSH LLC-MK2 [2]: 1.6 µg/mL (≈ 6.05 µM) | Therapeutic index (TI) VAR-BSH LLC-MK2 [2]: 62.5 | IC50 VAR-YAM Vero [3]: 5.3 µg/mL (≈ 20.1 µM) | Therapeutic index (TI) VAR-YAM Vero [3]: 18.9 | IC50 VAR-YAM LLC-MK2 [4]: 1.4 µg/mL (≈ 5.3 µM) | Therapeutic index (TI) VAR-YAM LLC-MK2 [4]: 71.4 | IC50 VAR-GAR Vero [5]: 1.6 µg/mL (≈ 6.05 µM) | Therapeutic index (TI) VAR-GAR Vero [5]: 62.5 | IC50 VAR-GAR LLC-MK2 [6]: 4.4 µg/mL (≈ 16.6 µM) | Therapeutic index (TI) VAR-GAR LLC-MK2 [6]: 22.7 | IC50 MPX Vero [7]: 0.4 µg/mL (≈ 1.51 µM) | Therapeutic index (TI) MPX Vero [7]: 250 | IC50 MPX LLC-MK2 [8]: 0.8 µg/mL (≈ 3.03 µM) | Therapeutic index (TI) MPX LLC-MK2 [8]: 125 | IC50 CPX Vero (CPX Brighton [9]): >100 µg/mL | Therapeutic index (TI) CPX Vero (CPX Brighton [9]): 1.0 | IC50 CPX LLC-MK2 (CPX Brighton [10]): 25.2 µg/mL (≈ 95.4 µM) | Therapeutic index (TI) CPX LLC-MK2 (CPX Brighton [10]): 4.0 | IC50 VAC Vero (VAC Copenhagen [11]): 1.2 µg/mL (≈ 4.54 µM) | Therapeutic index (TI) VAC Vero (VAC Copenhagen [11]): 83.3 | IC50 VAC LLC-MK2 (VAC Copenhagen [12]): 3.4 µg/mL (≈ 12.9 µM) | Therapeutic index (TI) VAC LLC-MK2 (VAC Copenhagen [12]): 29.4 | protective effect on CPX-infected mice (CPX): modest protective effect | protective effect on VAC-infected mice (VAC): modest protective effect | Cytotoxicity TC50 Vero (Vero cells): >100 µg/mL | Cytotoxicity TC50 LLC-MK2 (LLC-MK2 cells): >100 µg/mL

Nc1ccn(C[C@H]2COP(=O)(O)CO2)c(=O)n1 [cHPMPC, 1-[(S)-2-hydroxy-2-oxo-1-[4,2-dioxaphosphorinan-5-yl]methyl]cytosine]
Therapeutic index (TI) VAR-BSH Vero [1]: 3.2 | IC50 ([1]; read-out: IC50, VAR isolate Bangladesh): 17 µg/mL (≈ 65.1 µM) | IC50 ([1]; read-out: IC50 VAR-BSH Vero): 25.3 µg/mL (≈ 96.9 µM) | Therapeutic index (TI) VAR-BSH LLC-MK2 [2]: 4.9 | IC50 ([2]; LLC-MK2, read-out: IC50 VAR-BSH LLC-MK2): 20.3 µg/mL (≈ 77.7 µM) | Therapeutic index (TI) VAR-YAM Vero [3]: 2.8 | IC50 ([3]; read-out: IC50, VAR isolate Yamada): 31 µg/mL (≈ 119 µM) | IC50 ([3]; read-out: IC50 VAR-YAM Vero): 28.2 µg/mL (≈ 108 µM) | Therapeutic index (TI) VAR-YAM LLC-MK2 [4]: 16.4 | IC50 ([4]; LLC-MK2, read-out: IC50 VAR-YAM LLC-MK2): 6.1 µg/mL (≈ 23.4 µM) | Therapeutic index (TI) VAR-GAR Vero [5]: 10.1 | IC50 ([5]; read-out: IC50, VAR isolate Garcia): 4 µg/mL (≈ 15.3 µM) | IC50 ([5]; read-out: IC50 VAR-GAR Vero): 7.9 µg/mL (≈ 30.2 µM) | Therapeutic index (TI) VAR-GAR LLC-MK2 [6]: 16.9 | IC50 ([6]; LLC-MK2, read-out: IC50 VAR-GAR LLC-MK2): 5.9 µg/mL (≈ 22.6 µM) | Therapeutic index (TI) MPX Vero [7]: 6.5 | IC50 ([7]; read-out: IC50, MPX): 21 µg/mL (≈ 80.4 µM) | IC50 ([7]; read-out: IC50 MPX Vero): 12.3 µg/mL (≈ 47.1 µM) | Therapeutic index (TI) MPX LLC-MK2 [8]: 29.4 | IC50 ([8]; LLC-MK2, read-out: IC50 MPX LLC-MK2): 3.4 µg/mL (≈ 13 µM) | Therapeutic index (TI) CPX Vero (CPX Brighton [9]): 3.0 | IC50 (CPX Brighton [9]; read-out: IC50, CPX): 52 µg/mL (≈ 199 µM) | IC50 (CPX Brighton [9]; read-out: IC50 CPX Vero): 26.9 µg/mL (≈ 103 µM) | Therapeutic index (TI) CPX LLC-MK2 (CPX Brighton [10]): 1.0 | IC50 (CPX Brighton [10]; LLC-MK2, read-out: IC50 CPX LLC-MK2): > 100 µg/mL | Therapeutic index (TI) VAC Vero (VAC Copenhagen [11]): 4.4 | IC50 (VAC Copenhagen [11]; Orthopoxvirus vaccinia, Vero, read-out: IC50 VAC Vero): 18.1 µg/mL (≈ 69.3 µM) | Therapeutic index (TI) VAC LLC-MK2 (VAC Copenhagen [12]): 22.7 | IC50 (VAC Copenhagen [12]; Orthopoxvirus vaccinia, LLC-MK2, read-out: IC50 VAC LLC-MK2): 4.4 µg/mL (≈ 16.8 µM) | IC50 (VAR isolate Butler): 6 µg/mL (≈ 23 µM) | IC50 (VAR isolate Minn124): 9 µg/mL (≈ 34.5 µM) | IC50 (VAR isolate V68-59): 20 µg/mL (≈ 76.6 µM) | IC50 (VAR isolate 102): 38 µg/mL (≈ 145 µM) | IC50 (VAR isolate 7124): 26 µg/mL (≈ 99.6 µM) | IC50 (VAR isolate 7125): 24 µg/mL (≈ 91.9 µM) | IC50 (VAR isolate Eth17): 17 µg/mL (≈ 65.1 µM) | IC50 (VAR isolate Heidelberg): 14 µg/mL (≈ 53.6 µM) | IC50 (VAR isolate Higgins): 17 µg/mL (≈ 65.1 µM) | IC50 (VAR isolate Hinden): 19 µg/mL (≈ 72.7 µM) | IC50 (VAR isolate Horn): 12 µg/mL (≈ 45.9 µM) | IC50 (VAR isolate Iran 2602): 7 µg/mL (≈ 26.8 µM) | IC50 (VAR isolate K1629): 25 µg/mL (≈ 95.7 µM) | IC50 (VAR isolate Jee): 7 µg/mL (≈ 26.8 µM) | IC50 (VAR isolate Rafig Lahore): 18 µg/mL (≈ 68.9 µM) | IC50 (VAR isolate Rumbec): 16 µg/mL (≈ 61.3 µM) | IC50 (VAR isolate Shahzaman): 14 µg/mL (≈ 53.6 µM) | IC50 (VAR isolate Somalia): 8 µg/mL (≈ 30.6 µM) | IC50 (VAR isolate V70-46): 13 µg/mL (≈ 49.8 µM) | IC50 (VAR isolate V70-222): 23 µg/mL (≈ 88.1 µM) | IC50 (VAR isolate V72-119): 18 µg/mL (≈ 68.9 µM) | IC50 (VAR isolate V73-175): 16 µg/mL (≈ 61.3 µM) | IC50 (VAR isolate V73-225): 9 µg/mL (≈ 34.5 µM) | IC50 (VAR isolate V74-227): 9 µg/mL (≈ 34.5 µM) | IC50 (VAR isolate V77-1605): 22 µg/mL (≈ 84.2 µM) | IC50 (all VAR isolates tested): 17 ± 2 µg/mL (≈ 65.1 µM) | IC50 [13]: 21.6 ± 7.6 µg/mL (≈ 82.7 µM) | Cytotoxicity TC50 Vero (Vero cells; African green monkey): 80.0 µg/mL | Cytotoxicity TC50 LLC-MK2 (LLC-MK2 cells; rhesus monkey): >100 µg/mL
